Source: patent US8772499B2, “TRPV3 modulators” (AbbVie Inc., priority 2011, dated 2014)
pIC50: −log10 of the molar value. Like-named read-outs stand apart in the source and are kept apart here.

How the values were obtained:
[1] = In vitro rat microsomal stability assay; type: in vitro ADME, rat (Sprague-Dawley); settings: for RAT MICROSOMAL STABILITY (% REMAINING AFTER 30 MINUTES): Sprague-Dawley, microsomes, 0.5 h, 0.5 μM, pH 7.4
How it was run: (§1)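 Metabolic stability measured in Sprague-Dawley rat or human liver microsomes at 37 °C. Reactions supplemented with NADPH.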

[2] = In vitro human microsomal stability assay; type: in vitro ADME; settings: for HUMAN MICROSOMAL STABILITY (% REMAINING AFTER 30 MINUTES): microsomes, 0.5 h, 0.5 μM, pH 7.4
How it was run: as §1

[3] = target: T1, human TRPV3 (Homo sapiens, UniProt Q8NET8); assay: In vitro antagonism of recombinant human TRPV3 activation (FLIPR Tetra calcium assay); type: cell-based; settings: HEK293 cells stably expressing human TRPV3, agonist 2-APB at 80 μM
T1 construct: expressed in transfected cells
T1 sequence (Q8NET8 1-790): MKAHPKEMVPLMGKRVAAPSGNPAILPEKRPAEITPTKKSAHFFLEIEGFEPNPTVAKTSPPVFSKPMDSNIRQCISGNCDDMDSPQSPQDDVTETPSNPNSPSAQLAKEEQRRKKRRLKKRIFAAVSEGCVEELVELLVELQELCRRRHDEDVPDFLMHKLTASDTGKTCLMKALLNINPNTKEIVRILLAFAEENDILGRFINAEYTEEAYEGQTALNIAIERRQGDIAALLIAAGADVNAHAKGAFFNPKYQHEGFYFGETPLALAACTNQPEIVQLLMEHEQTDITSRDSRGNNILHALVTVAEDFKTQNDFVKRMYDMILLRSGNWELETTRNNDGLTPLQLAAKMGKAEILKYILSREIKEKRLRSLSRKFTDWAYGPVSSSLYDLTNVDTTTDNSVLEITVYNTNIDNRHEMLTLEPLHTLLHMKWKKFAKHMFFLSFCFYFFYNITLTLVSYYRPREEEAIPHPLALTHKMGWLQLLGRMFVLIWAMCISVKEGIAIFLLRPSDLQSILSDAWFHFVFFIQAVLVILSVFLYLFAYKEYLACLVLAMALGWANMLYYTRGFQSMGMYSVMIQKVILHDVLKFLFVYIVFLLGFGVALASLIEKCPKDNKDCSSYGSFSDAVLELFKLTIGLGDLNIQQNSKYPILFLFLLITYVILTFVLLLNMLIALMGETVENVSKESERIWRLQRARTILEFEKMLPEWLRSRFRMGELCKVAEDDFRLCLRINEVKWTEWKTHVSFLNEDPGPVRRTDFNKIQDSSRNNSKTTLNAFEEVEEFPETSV
How it was run: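 HEK293 cells stably expressing human TRPV3, loaded with Calcium-4 dye for 90–120 min, received compound in DPBS, then 80 μM 2-APB (EC80) 3 min later. Max-minus-min fluorescence expressed as % of 2-APB response without antagonist; IC50 values mostly averages of n≥2 runs.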

[4] = actual measured value shown parenthetically, in most cases average of at least two runs, read-out: IC50
[5] = reported range, read-out: IC50 (range class)

OC(C1CCc2cccnc21)C1(c2ccc(F)c(F)c2)CCC1 (stereo not drawn) [Example 171, (anti)-[1-(3,4-difluorophenyl)cyclobutyl][6,7-dihydro-5H-cyclopenta[b]-pyridin-7-yl]methanol]
RAT MICROSOMAL STABILITY (% REMAINING AFTER 30 MINUTES) [1]: <0.01% | HUMAN MICROSOMAL STABILITY (% REMAINING AFTER 30 MINUTES) [2]: 2.7% | pIC50 [3, 4]: < 4.70 | pIC50 [3, 5]: < 4.70

OC(C1CCc2cccnc21)C1(c2ccc(F)c(F)c2)CCC1 (stereo not drawn) [Example 172, (syn)-[1-(3,4-difluorophenyl)cyclobutyl][6,7-dihydro-5H-cyclopenta[b]-pyridin-7-yl]methanol]
RAT MICROSOMAL STABILITY (% REMAINING AFTER 30 MINUTES) [1]: <0.01% | HUMAN MICROSOMAL STABILITY (% REMAINING AFTER 30 MINUTES) [2]: 2.4% | pIC50 [3, 4]: < 4.70 | pIC50 [3, 5]: < 4.70

OC(C1CCc2cccnc21)C1(c2ccc(C(F)(F)F)cc2)CCC1 (stereo not drawn) [Example 173, (anti)-6,7-dihydro-5H-cyclopenta[b]pyridin-7-yl{1-[4-(trifluoromethyl)-phenyl]cyclobutyl}methanol]
RAT MICROSOMAL STABILITY (% REMAINING AFTER 30 MINUTES) [1]: <0.01% | HUMAN MICROSOMAL STABILITY (% REMAINING AFTER 30 MINUTES) [2]: 45% | pIC50 [3, 4]: < 4.70 | pIC50 [3, 5]: < 4.70

OC(C1CCc2cccnc21)C1(c2ccc(C(F)(F)F)cc2)CCC1 (stereo not drawn) [Example 174, (syn)-6,7-dihydro-5H-cyclopenta[b]pyridin-7-yl{1-[4-(trifluoromethyl)-phenyl]cyclobutyl}methanol]
RAT MICROSOMAL STABILITY (% REMAINING AFTER 30 MINUTES) [1]: <0.01% | HUMAN MICROSOMAL STABILITY (% REMAINING AFTER 30 MINUTES) [2]: 26% | pIC50 [3, 4]: < 4.70 | pIC50 [3, 5]: < 4.70

OC(C1CCc2cccnc21)C1(c2ccc(OC(F)(F)F)cc2)CCC1 (stereo not drawn) [Example 175, (anti)-6,7-dihydro-5H-cyclopenta[b]pyridin-7-yl{1-[4-(trifluoromethoxy)-phenyl]cyclobutyl}methanol]
RAT MICROSOMAL STABILITY (% REMAINING AFTER 30 MINUTES) [1]: <0.01% | HUMAN MICROSOMAL STABILITY (% REMAINING AFTER 30 MINUTES) [2]: 29% | pIC50 [3, 4]: < 4.70 | pIC50 [3, 5]: < 4.70

OC(C1CCc2cccnc21)C1(c2ccc(OC(F)(F)F)cc2)CCC1 (stereo not drawn) [Example 176, (syn)-6,7-dihydro-5H-cyclopenta[b]pyridin-7-yl{1-[4-(trifluoromethoxy)-phenyl]cyclobutyl}methanol]
RAT MICROSOMAL STABILITY (% REMAINING AFTER 30 MINUTES) [1]: <0.01% | HUMAN MICROSOMAL STABILITY (% REMAINING AFTER 30 MINUTES) [2]: 20% | pIC50 [3, 4]: < 4.70 | pIC50 [3, 5]: < 4.70

OC(C1CCc2cccnc21)C1(c2cccc(C(F)(F)F)c2)CCC1 (stereo not drawn) [Example 185, (anti)-6,7-dihydro-5H-cyclopenta[b]pyridin-7-yl{1-[3-(trifluoromethyl)-phenyl]cyclobutyl}methanol]
RAT […] (% REMAINING AFTER 30 MINUTES) ([1]; rat liver microsomes (Sprague-Dawley), 0.5 μM substrate, 0.25 mg/mL microsomal protein, pH 7.4, 37° C., NADPH, 30 minutes): <0.01% | HUMAN […] (% REMAINING AFTER 30 MINUTES) ([2]; human liver microsomes, 0.5 μM substrate, 0.25 mg/mL microsomal protein, pH 7.4, 37° C., NADPH, 30 minutes): 0.39% | pIC50 [3, 4]: < 4.70 | pIC50 [3, 5]: < 4.70

OC(C1CCc2cccnc21)C1(c2cccc(C(F)(F)F)c2)CCC1 (stereo not drawn) [Example 186, (syn)-6,7-dihydro-5H-cyclopenta[b]pyridin-7-yl{1-[3-(trifluoromethyl)-phenyl]cyclobutyl}methanol]
RAT MICROSOMAL STABILITY (% REMAINING AFTER 30 MINUTES) [1]: <0.01% | HUMAN MICROSOMAL STABILITY (% REMAINING AFTER 30 MINUTES) [2]: 0.18% | pIC50 [3, 4]: < 4.70 | pIC50 [3, 5]: < 4.70

OC(C1CCCc2cccnc21)C1(c2cccc(OC(F)(F)F)c2)CCC1 (stereo not drawn) [Example 187, (anti)-5,6,7,8-tetrahydroquinolin-8-yl{1-[3-(trifluoromethoxy)phenyl]-cyclobutyl}methanol]
RAT MICROSOMAL STABILITY (% REMAINING AFTER 30 MINUTES) [1]: <0.01% | HUMAN MICROSOMAL STABILITY (% REMAINING AFTER 30 MINUTES) [2]: <0.01% | pIC50 [3, 4]: < 4.70 | pIC50 [3, 5]: < 4.70

OC(C1CCCc2cccnc21)C1(c2cccc(OC(F)(F)F)c2)CCC1 (stereo not drawn) [Example 188, (syn)-5,6,7,8-tetrahydroquinolin-8-yl{1-[3-(trifluoromethoxy)phenyl]-cyclobutyl}methanol]
RAT MICROSOMAL STABILITY (% REMAINING AFTER 30 MINUTES) [1]: <0.01% | HUMAN MICROSOMAL STABILITY (% REMAINING AFTER 30 MINUTES) [2]: 0.16% | pIC50 [3, 4]: < 4.70 | pIC50 [3, 5]: < 4.70

OC(C1CCc2cccnc21)C1(c2cccc(OC(F)(F)F)c2)CCC1 (stereo not drawn) [Example 189, (anti)-6,7-dihydro-5H-cyclopenta[b]pyridin-7-yl{1-[3-(trifluoromethoxy)-phenyl]cyclobutyl}methanol]
RAT MICROSOMAL STABILITY (% REMAINING AFTER 30 MINUTES) [1]: <0.01% | HUMAN MICROSOMAL STABILITY (% REMAINING AFTER 30 MINUTES) [2]: 0.65% | pIC50 [3, 4]: < 4.70 | pIC50 [3, 5]: < 4.70
